Among the test systems are COLO 205 colon; SN12C renal; K-562 leukemia; M14 melanoma; HS 578T breast; SNB-75 CNS; SK-OV-3 ovarian; HT29 colon; 786-0 renal; HCT-15 colon.
Assay in all cases: NCI anticancer screen, dose series, 48 h

Structures are written as SMILES. Where “and” joins values, the source holds several entries; their conditions need not be identical. Equal values may be shown once.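 Results reflect a 48-hour exposure of cells in 96-well plates to compound at five concentrations. Abbreviation: GI50, concentration required for 50% inhibition of growth. TGI denotes the concentration required for complete inhibition of growth.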

On to `Nc1nc2ccc(CNc3ccc(C(=O)NC(CC(=O)O)C(=O)O)cc3)cc2c(=O)[nH]1` (configuration not stated), for which the GI50 is 10.7 µM in the test on COLO 205 colon; 3.86 µM with SN12C renal; 0.437 µM in the test with K-562 leukemia; > 64.2 µM with HS 578T breast; > 100 µM in the test with SNB-75 CNS; > 29.1 µM with SK-OV-3 ovarian. The GI50 is 0.67 µM with HT29 colon, 2.18 µM in the test on 786-0 renal and 0.757 µM in the test with HCT-15 colon. The TGI with COLO 205 colon, in the test on SN12C renal, with K-562 leukemia, in the test with M14 melanoma, in the test with HS 578T breast and with SNB-75 CNS was > 100 µM in each case. In addition, the TGI with SK-OV-3 ovarian, in the test on HT29 colon, with 786-0 renal and in the test with HCT-15 colon was > 100 µM throughout.
As to `COc1ccc2c(c1)OCC1c3cc(OC)c4ccccc4c3OC21` (configuration not stated), the GI50 was 7.98 µM in the test on COLO 205 colon; 17.1 µM in the test on SN12C renal; 4.62 µM in the test on K-562 leukemia; 7.23 µM in the test with M14 melanoma; 11.3 µM with HS 578T breast; 11.8 µM in the test on SNB-75 CNS. Also, the GI50 was 15.9 µM in the test on SK-OV-3 ovarian, 3.84 µM in the test on HT29 colon, 26.1 µM in the test with 786-0 renal and 6.06 µM in the test with HCT-15 colon. In addition, the TGI with COLO 205 colon is 33.1 µM; in the test on SN12C renal it was 77.4 µM; in the test with K-562 leukemia, > 100 µM; in the test with M14 melanoma, > 100 µM; with HS 578T breast, 37 µM; in the test with SNB-75 CNS it was 47.9 µM. The TGI with SK-OV-3 ovarian, with HT29 colon, in the test on 786-0 renal and in the test with HCT-15 colon was > 100 µM in each case.
As to `Cc1c(O)cccc1C(=O)N[C@@H](CSc1ccccc1)[C@H](O)CN1C[C@H]2CCCC[C@H]2C[C@H]1C(=O)NC(C)(C)C`, the GI50 in the test with COLO 205 colon was 2.24 µM and 4.05 µM; in the test with SN12C renal it was 4.07 µM and 6.63 µM; in the test on K-562 leukemia it was 3.35 µM and 10.3 µM; with M14 melanoma it was 4.45 µM and 5.2 µM; in the test on HS 578T breast it was 4.82 µM and 4.87 µM; with SNB-75 CNS, 2.77 µM and 2.58 µM. Besides, the GI50 in the test on SK-OV-3 ovarian was 4.29 µM and 9.5 µM; in the test on HT29 colon, 3.06 µM and 5.65 µM; in the test with 786-0 renal it was 3.8 µM and 5.87 µM; in the test on HCT-15 colon, 1.77 µM and 3.11 µM. The TGI was 6.03 µM in the test with COLO 205 colon; 12.6 µM and 18.3 µM in the test on SN12C renal; > 100 µM and 31.3 µM in the test with K-562 leukemia; 16.4 µM and 15.4 µM with M14 melanoma; > 58 µM and 20.3 µM with HS 578T breast; 14.5 µM and 18.4 µM with SNB-75 CNS. Also, the TGI is 23.9 µM and > 59.7 µM in the test on SK-OV-3 ovarian; 12 µM and 19.9 µM in the test on HT29 colon; 16.4 µM and 16 µM in the test on 786-0 renal; 13.2 µM and 12.9 µM in the test with HCT-15 colon.
Consider `Cc1[nH]c(C(=O)Nc2cccc(OC3CCNCC3)c2)c(Cl)c1Cl`, for which the GI50 in the test on COLO 205 colon is 1.93 µM; in the test on SN12C renal it was 2.8 µM; with K-562 leukemia, 1.76 µM; in the test with M14 melanoma it was 1.8 µM; in the test on HS 578T breast, 2.02 µM; in the test on SNB-75 CNS it was 1.13 µM. Besides, the GI50 with SK-OV-3 ovarian is 2.07 µM; in the test with HT29 colon it was 1.92 µM; in the test with 786-0 renal it was 1.83 µM; in the test with HCT-15 colon, 1.73 µM. The TGI in the test on COLO 205 colon is 4.02 µM; with SN12C renal, 10.1 µM; in the test with K-562 leukemia it was 4.53 µM; in the test with M14 melanoma, 3.52 µM; in the test with HS 578T breast, 5.16 µM; in the test with SNB-75 CNS, 2.65 µM. Moreover, the TGI in the test on SK-OV-3 ovarian turned out to be 5.09 µM; with HT29 colon, 4.44 µM; in the test on 786-0 renal it was 3.44 µM; with HCT-15 colon, 3.36 µM.
With `CC1(C)CC[C@]23CC[C@]4(C)[C@H](CC[C@@H]5[C@@]6(C)CCCNC(C)(C)[C@@H]6CC[C@]54C)[C@H]2[C@H]1OC3`, the GI50 with COLO 205 colon was 1.28 µM; with SN12C renal it was 1.68 µM; with K-562 leukemia, 1.96 µM; in the test on M14 melanoma, 1.77 µM; in the test on HS 578T breast, 1.96 µM; in the test with SNB-75 CNS, 1.5 µM. The GI50 in the test with SK-OV-3 ovarian was 2.73 µM; in the test on HT29 colon, 1.78 µM; in the test with 786-0 renal, 1.66 µM; with HCT-15 colon, 1.31 µM. The TGI was 2.68 µM with COLO 205 colon; 3.2 µM with SN12C renal; 7 µM with K-562 leukemia; 3.31 µM in the test on M14 melanoma; 4.69 µM with HS 578T breast; 2.94 µM with SNB-75 CNS. The TGI in the test on SK-OV-3 ovarian was found to be 7.93 µM; with HT29 colon it was 3.63 µM; in the test on 786-0 renal it was 3.21 µM; with HCT-15 colon it was 2.68 µM.
`CCCCCCCCCCCCC(O)C1CCC(C(O)CCCCC(O)CCCCCC2CC(CC(C)=O)C(=O)O2)O1` (configuration not stated): the GI50 with COLO 205 colon was 1.37 µM; with SN12C renal, 2.54 µM; with K-562 leukemia, 1.35 µM; in the test on M14 melanoma it was 1.66 µM; with SNB-75 CNS, 1.25 µM; in the test with HT29 colon, 1.37 µM. For the same compound, the GI50 in the test with 786-0 renal was 3.91 µM; in the test with HCT-15 colon, 2.56 µM. In addition, the TGI in the test with COLO 205 colon was 2.65 µM and 11.7 µM; in the test with SN12C renal, 8.27 µM and 20.2 µM; with K-562 leukemia it was 7.7 µM; in the test on M14 melanoma, 3.33 µM and 22.2 µM; in the test with HS 578T breast, 3.8 µM; in the test with SNB-75 CNS, 5.42 µM and 16.4 µM. Besides, the TGI in the test with SK-OV-3 ovarian was 26 µM; in the test on HT29 colon it was 2.65 µM and 15.4 µM; with 786-0 renal, 19.7 µM; in the test on HCT-15 colon, 5.23 µM and 17.9 µM.
Turning to `COc1ccccc1CNCCCN1C(=O)c2ccc3c4c(ccc(c24)C1=O)C(=O)N(CCCNCCCCNCCCN)C3=O`, the GI50 in the test with COLO 205 colon was 0.168 µM; in the test on SN12C renal, 0.319 µM; with K-562 leukemia it was 0.302 µM; with M14 melanoma, 0.645 µM; with HS 578T breast, 1.34 µM; with SNB-75 CNS, 0.609 µM. Besides, the GI50 was 1.95 µM in the test with SK-OV-3 ovarian, 0.287 µM in the test on HT29 colon, 1.03 µM in the test with 786-0 renal and 1.75 µM in the test on HCT-15 colon. For the same compound, the TGI in the test on COLO 205 colon worked out at 0.317 µM; with SN12C renal, 1.5 µM; in the test with K-562 leukemia, 7.05 µM; in the test with M14 melanoma it was 2.08 µM; in the test on HS 578T breast, 5.49 µM; with SNB-75 CNS, 1.86 µM. Further, the TGI was determined as 11.1 µM in the test with SK-OV-3 ovarian, 0.995 µM in the test with HT29 colon, 3.78 µM in the test with 786-0 renal and 5.73 µM with HCT-15 colon.

The record behind these values is PubChem BioAssay (NCI).
